What is called EC50 is the concentration that produces a half-maximal response. Higher therefore signals weaker potency.

Where a SMILES comes first, the peptide text is derived from it. [ ]: non-standard residue; d: D form. Aib = CC(C)(N)C(=O)O

These results are taken from patent US20240239861A1, “GLUCAGON-RECEPTOR SELECTIVE POLYPEPTIDES AND METHODS OF USE THEREOF” (i2O Therapeutics, Inc., priority 2016, published 2024).

One experiment addresses human GLP-1R (Homo sapiens, UniProt P43220). Nature of the experiment: Peptide-receptor mediated cAMP accumulation (LANCE Ultra cAMP) in CHO-K1 cells transfected with human GLP-1R. As to conditions: hGLP1 pEC50 (cAMP mean (n = 3): 11 point curve starting at 1 nM, Table 3). It counts as cell-based.
In another experiment the target is human GCGR (Homo sapiens, UniProt P47871). The experiment in a line: Peptide-receptor mediated cAMP accumulation (LANCE Ultra cAMP) in CHO-K1 cells transfected with human GCGR. As to conditions: Table 3. It counts as cell-based. (Cyclic AMP is a second messenger, typically raised through Gs and lowered through Gi signalling.)
Chain of human GCGR (P47871 26-477): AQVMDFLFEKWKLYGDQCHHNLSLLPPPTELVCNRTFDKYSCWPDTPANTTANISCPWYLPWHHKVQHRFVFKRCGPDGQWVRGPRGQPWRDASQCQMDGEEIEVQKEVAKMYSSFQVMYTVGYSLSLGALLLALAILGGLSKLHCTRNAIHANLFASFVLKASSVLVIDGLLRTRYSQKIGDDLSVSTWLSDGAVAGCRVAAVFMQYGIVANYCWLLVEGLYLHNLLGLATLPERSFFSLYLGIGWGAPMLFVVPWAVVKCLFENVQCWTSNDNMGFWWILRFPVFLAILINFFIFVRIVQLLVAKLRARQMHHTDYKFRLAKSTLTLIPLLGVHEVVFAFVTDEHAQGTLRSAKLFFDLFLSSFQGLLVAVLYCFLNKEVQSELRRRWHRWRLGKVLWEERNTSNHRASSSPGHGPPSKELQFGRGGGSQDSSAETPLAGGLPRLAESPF

Chain of human GLP-1R (P43220 24-463): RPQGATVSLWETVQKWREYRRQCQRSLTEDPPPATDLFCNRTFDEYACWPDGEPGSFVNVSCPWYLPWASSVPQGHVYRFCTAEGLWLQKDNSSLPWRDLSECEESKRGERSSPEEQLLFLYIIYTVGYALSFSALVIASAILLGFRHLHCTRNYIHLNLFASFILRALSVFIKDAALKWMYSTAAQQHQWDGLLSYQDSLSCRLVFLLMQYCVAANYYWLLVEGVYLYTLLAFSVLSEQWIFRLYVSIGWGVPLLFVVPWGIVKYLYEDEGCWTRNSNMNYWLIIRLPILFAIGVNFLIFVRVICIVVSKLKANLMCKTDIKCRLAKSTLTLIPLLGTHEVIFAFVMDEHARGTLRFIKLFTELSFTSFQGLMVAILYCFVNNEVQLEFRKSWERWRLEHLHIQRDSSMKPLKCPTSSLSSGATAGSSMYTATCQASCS

For the compound `CC(C)C[C@H](NC(=O)[C@H](Cc1c[nH]c2ccccc12)NC(=O)[C@H](CCCCN)NC(=O)[C@H](CO)NC(=O)[C@H](Cc1c[nH]cn1)NC(=O)[C@H](CC(=O)O)NC(=O)[C@H](CO)NC(=O)[C@@H](NC(=O)[C@H](Cc1ccccc1)NC(=O)[C@@H](NC(=O)CNC(=O)[C@H](Cc1c[nH]cn1)NC(=O)[C@@H](NC(=O)[C@@H](N)Cc1ccc(O)cc1)[C@@H](C)O)[C@@H](C)O)[C@@H](C)O)C(=O)N[C@@H](CC(=O)O)C(=O)N[C@@H](CCC(=O)O)C(=O)N[C@@H](C)C(=O)N[C@@H](CCCNC(=N)N)C(=O)N[C@@H](C)C(=O)N[C@@H](CCC(N)=O)C(=O)N[C@@H](CCC(=O)O)C(=O)N[C@@H](Cc1ccccc1)C(=O)N[C@H](C(=O)N[C@@H](CCCCN)C(=O)N[C@@H](Cc1c[nH]c2ccccc12)C(=O)N[C@@H](CC(C)C)C(=O)N[C@@H](CCC(=O)O)C(=O)N[C@@H](CC(=O)O)C(=O)N[C@@H](CCC(=O)O)C(=O)N1CCC[C@H]1C(=O)N[C@@H](CO)C(=O)N[C@@H](CO)C(=O)NCC(=O)N[C@@H](C)C(=O)N1CCC[C@H]1C(=O)N1CCC[C@H]1C(=O)N1CCC[C@H]1C(=O)N[C@@H](CO)C(=O)O)C(C)C` [Compound A41] (H-YTHGTFTSDHSKWLDEARAQEFVKWLEDEPSSGAPPPS-OH; N-terminus assumed), the results for the EC50 on human GLP-1R and at human GCGR were more than 1 nM and 0.631 nM, respectively.
In the same order, the values of `CC(C)C[C@H](NC(=O)[C@H](Cc1c[nH]c2ccccc12)NC(=O)[C@H](CCCCN)NC(=O)[C@H](CO)NC(=O)[C@H](Cc1ccc(O)cc1)NC(=O)[C@H](CC(=O)O)NC(=O)[C@H](CO)NC(=O)[C@@H](NC(=O)[C@H](Cc1ccccc1)NC(=O)[C@@H](NC(=O)CNC(=O)[C@H](Cc1c[nH]cn1)NC(=O)[C@@H](NC(=O)[C@@H](N)Cc1ccc(O)cc1)[C@@H](C)O)[C@@H](C)O)[C@@H](C)O)C(=O)N[C@@H](CC(=O)O)C(=O)N[C@@H](CO)C(=O)N[C@@H](CCCCN)C(=O)N[C@@H](CCCNC(=N)N)C(=O)N[C@@H](C)C(=O)N[C@@H](CCC(N)=O)C(=O)N[C@@H](CCC(=O)O)C(=O)N[C@@H](Cc1ccccc1)C(=O)N[C@H](C(=O)N[C@@H](CCCCN)C(=O)N[C@@H](Cc1c[nH]c2ccccc12)C(=O)N[C@@H](CC(C)C)C(=O)N[C@@H](CCC(=O)O)C(=O)N[C@@H](CC(=O)O)C(=O)N[C@@H](CCC(=O)O)C(=O)N1CCC[C@H]1C(=O)N[C@@H](CO)C(=O)N[C@@H](CO)C(=O)NCC(=O)N[C@@H](C)C(=O)N1CCC[C@H]1C(=O)N1CCC[C@H]1C(=O)N1CCC[C@H]1C(=O)N[C@@H](CO)C(=O)O)C(C)C` [Compound A42] (H-YTHGTFTSDYSKWLDSKRAQEFVKWLEDEPSSGAPPPS-OH; N-terminus assumed) are more than 1 nM and 0.398 nM.
As to `CC(C)C[C@H](NC(=O)[C@H](Cc1ccc(O)cc1)NC(=O)[C@H](CCCCN)NC(=O)[C@H](CO)NC(=O)[C@H](Cc1ccc(O)cc1)NC(=O)[C@H](CC(=O)O)NC(=O)[C@H](CO)NC(=O)[C@@H](NC(=O)[C@H](Cc1ccccc1)NC(=O)[C@@H](NC(=O)CNC(=O)[C@H](Cc1c[nH]cn1)NC(=O)[C@H](CO)NC(=O)[C@@H](N)Cc1ccc(O)cc1)[C@@H](C)O)[C@@H](C)O)C(=O)N[C@@H](CC(=O)O)C(=O)NC(C)(C)C(=O)N[C@@H](CCCCN)C(=O)N[C@@H](CCCNC(=N)N)C(=O)N[C@@H](C)C(=O)N[C@@H](CCC(N)=O)C(=O)N[C@@H](CCC(=O)O)C(=O)N[C@@H](Cc1ccccc1)C(=O)N[C@H](C(=O)NC(C)(C)C(=O)N[C@@H](Cc1c[nH]c2ccccc12)C(=O)N[C@@H](CC(C)C)C(=O)N[C@@H](CCC(=O)O)C(=O)N[C@@H](CC(=O)O)C(=O)N[C@@H](CCC(=O)O)C(=O)N[C@@H](CCCCN)C(=O)N[C@@H](CCCNC(=N)N)C(=O)N[C@@H](CC(N)=O)C(=O)N[C@@H](CCCCN)C(=O)N1CCC[C@H]1C(=O)N1CCC[C@H]1C(=O)N1CCC[C@H]1C(=O)N[C@@H](C)C(=O)O)C(C)C` [Compound A45] (H-YSHGTFTSDYSKYLD[Aib]KRAQEFV[Aib]WLEDEKRNKPPPA-OH; N-terminus assumed), the EC50 on human GLP-1R was more than 1 nM; on human GCGR it was 0.002 nM.
In the same order, the values of `CC(C)C[C@H](NC(=O)[C@H](Cc1ccc(O)cc1)NC(=O)[C@H](CCCCN)NC(=O)[C@H](CO)NC(=O)[C@H](Cc1ccc(O)cc1)NC(=O)[C@H](CC(=O)O)NC(=O)[C@H](CO)NC(=O)[C@@H](NC(=O)[C@H](Cc1ccccc1)NC(=O)[C@@H](NC(=O)CNC(=O)[C@H](Cc1c[nH]cn1)NC(=O)[C@H](CO)NC(=O)[C@@H](N)Cc1ccc(O)cc1)[C@@H](C)O)[C@@H](C)O)C(=O)N[C@@H](CC(=O)O)C(=O)NC(C)(C)C(=O)N[C@@H](CCCCN)C(=O)N[C@@H](CCCNC(=N)N)C(=O)N[C@@H](C)C(=O)N[C@@H](CCC(N)=O)C(=O)N[C@@H](CCC(=O)O)C(=O)N[C@@H](Cc1ccccc1)C(=O)N[C@H](C(=O)NC(C)(C)C(=O)N[C@@H](Cc1c[nH]c2ccccc12)C(=O)N[C@@H](CC(C)C)C(=O)N[C@@H](CCC(=O)O)C(=O)N[C@@H](CC(=O)O)C(=O)N[C@@H](CCC(=O)O)C(=O)N[C@@H](CCCCN)C(=O)N[C@@H](CCCNC(=N)N)C(=O)N[C@@H](CC(N)=O)C(=O)N[C@@H](CCCCN)C(=O)N[C@@H](CC(N)=O)C(=O)N1CCC[C@H]1C(=O)N1CCC[C@H]1C(=O)N[C@@H](CO)C(=O)O)C(C)C` [Compound A47] (H-YSHGTFTSDYSKYLD[Aib]KRAQEFV[Aib]WLEDEKRNKNPPS-OH; N-terminus assumed) are more than 1 nM and 0.00316 nM.
Regarding `CC(C)C[C@H](NC(=O)[C@H](Cc1ccc(O)cc1)NC(=O)[C@H](CCCCN)NC(=O)[C@H](CO)NC(=O)[C@H](Cc1ccc(O)cc1)NC(=O)[C@H](CC(=O)O)NC(=O)[C@H](CO)NC(=O)[C@@H](NC(=O)[C@H](Cc1ccccc1)NC(=O)[C@@H](NC(=O)CNC(=O)[C@H](Cc1c[nH]cn1)NC(=O)[C@H](CO)NC(=O)[C@@H](N)Cc1ccc(O)cc1)[C@@H](C)O)[C@@H](C)O)C(=O)N[C@@H](CC(=O)O)C(=O)NC(C)(C)C(=O)N[C@@H](CCCCN)C(=O)N[C@@H](CCCNC(=N)N)C(=O)N[C@@H](C)C(=O)N[C@@H](CCC(N)=O)C(=O)N[C@@H](CCC(=O)O)C(=O)N[C@@H](Cc1ccccc1)C(=O)N[C@H](C(=O)NC(C)(C)C(=O)N[C@@H](Cc1c[nH]c2ccccc12)C(=O)N[C@@H](CC(C)C)C(=O)N[C@@H](CCC(=O)O)C(=O)N[C@@H](CC(=O)O)C(=O)N[C@@H](CCC(=O)O)C(=O)N[C@@H](CCCCN)C(=O)N[C@@H](CCCNC(=N)N)C(=O)N[C@@H](CC(N)=O)C(=O)N[C@@H](CCCCN)C(=O)N1CCC[C@H]1C(=O)N1CCC[C@H]1C(=O)N1CCC[C@H]1C(=O)N[C@@H](CO)C(=O)O)C(C)C` [Compound A50] (H-YSHGTFTSDYSKYLD[Aib]KRAQEFV[Aib]WLEDEKRNKPPPS-OH; N-terminus assumed), the EC50 on human GLP-1R is more than 1 nM; on human GCGR, 0.00316 nM.
In the same order, the values of `CC(C)C[C@H](NC(=O)[C@H](Cc1c[nH]c2ccccc12)NC(=O)[C@H](CC(C)C)NC(=O)[C@@H](NC(=O)[C@H](Cc1ccccc1)NC(=O)[C@H](CCC(=O)O)NC(=O)[C@H](CCC(N)=O)NC(=O)[C@H](C)NC(=O)[C@H](CCCNC(=N)N)NC(=O)[C@H](CCCCN)NC(=O)C(C)(C)NC(=O)[C@H](CC(=O)O)NC(=O)[C@H](CC(C)C)NC(=O)[C@H](Cc1ccc(O)cc1)NC(=O)[C@H](CCCCN)NC(=O)[C@H](CO)NC(=O)[C@H](Cc1ccc(O)cc1)NC(=O)[C@H](CC(=O)O)NC(=O)[C@H](CO)NC(=O)[C@@H](NC(=O)[C@H](Cc1ccccc1)NC(=O)[C@@H](NC(=O)CNC(=O)[C@H](Cc1c[nH]cn1)NC(=O)[C@H](CO)NC(=O)[C@@H](N)Cc1ccc(O)cc1)[C@@H](C)O)[C@@H](C)O)C(C)C)C(=O)N[C@@H](CCC(=O)O)C(=O)N[C@@H](CC(=O)O)C(=O)N[C@@H](CCC(=O)O)C(=O)N1CCC[C@H]1C(=O)N[C@@H](CO)C(=O)N[C@@H](CO)C(=O)NCC(=O)N[C@@H](C)C(=O)N1CCC[C@H]1C(=O)N1CCC[C@H]1C(=O)N1CCC[C@H]1C(=O)N[C@@H](CO)C(=O)O` [Compound A53] (H-YSHGTFTSDYSKYLD[Aib]KRAQEFVLWLEDEPSSGAPPPS-OH; N-terminus assumed) are more than 1 nM and 0.00251 nM.
With `CC(C)C[C@H](NC(=O)[C@H](Cc1ccc(O)cc1)NC(=O)[C@H](CCCCN)NC(=O)[C@H](CO)NC(=O)[C@H](Cc1ccc(O)cc1)NC(=O)[C@H](CC(=O)O)NC(=O)[C@H](CO)NC(=O)[C@@H](NC(=O)[C@H](Cc1ccccc1)NC(=O)[C@@H](NC(=O)CNC(=O)[C@H](Cc1c[nH]cn1)NC(=O)[C@H](CO)NC(=O)[C@@H](N)Cc1ccc(O)cc1)[C@@H](C)O)[C@@H](C)O)C(=O)N[C@@H](CC(=O)O)C(=O)NC(C)(C)C(=O)N[C@@H](CCCCN)C(=O)N[C@@H](CCCNC(=N)N)C(=O)N[C@@H](C)C(=O)N[C@@H](CCC(N)=O)C(=O)N[C@@H](CCC(=O)O)C(=O)N[C@@H](Cc1ccccc1)C(=O)N[C@H](C(=O)NC(C)(C)C(=O)N[C@@H](Cc1c[nH]c2ccccc12)C(=O)N[C@@H](CC(C)C)C(=O)N[C@@H](CCC(=O)O)C(=O)N[C@@H](CC(=O)O)C(=O)N[C@@H](CCC(=O)O)C(=O)N1CCC[C@H]1C(=O)N[C@@H](CCCCN)C(=O)N[C@@H](CO)C(=O)N[C@@H](CCCCN)C(=O)N[C@@H](CCC(N)=O)C(=O)N1CCC[C@H]1C(=O)N1CCC[C@H]1C(=O)N1CCC[C@H]1C(=O)N[C@@H](CO)C(=O)O)C(C)C` [Compound A57] (H-YSHGTFTSDYSKYLD[Aib]KRAQEFV[Aib]WLEDEPKSKQPPPS-OH; N-terminus assumed), the EC50 is more than 1 nM on human GLP-1R and 0.001 nM at human GCGR.
